From ChEMBL document CHEMBL2046391, “Calyxamides A and B, cytotoxic cyclic peptides from the marine sponge Discodermia calyx” (J Nat Prod, 2012)
Calls of active or inactive are those of the source.

Columns and labels:
MCF7 = assay: Antiproliferative activity against human MCF7 cells at 100 uM by XTT assay; type: functional, cell-based
Caco-2 = assay: Antiproliferative activity against human Caco2 cells at 100 uM by XTT assay; type: functional, cell-based
Drosophila melanogaster = assay: Insecticidal activity against Drosophila melanogaster at 100 ug; type: functional, organism-based
Saccharomyces cerevisiae = assay: Antimicrobial activity against Saccharomyces cerevisiae at 100 ug/disc measured every 24 hrs for 4 days by disc diffusion method; type: functional, organism-based
Beauveria bassiana = assay: Antimicrobial activity against Beauveria bassiana ARSEF 8354 at 100 ug/disc measured every 24 hrs for 4 days by disc diffusion method; type: functional
Aedes aegypti = assay: Insecticidal activity against Aedes aegypti larvae at 100 ug/mL after 24 hrs; type: functional, organism-based
Colletotrichum acutatum = assay: Antimicrobial activity against Colletotrichum acutatum at 100 ug/disc measured every 24 hrs for 4 days by disc diffusion method; type: functional, organism-based
Bacillus cereus = assay: Antimicrobial activity against Bacillus cereus at 100 ug/disc measured every 24 hrs for 4 days by disc diffusion method; type: functional, organism-based
Escherichia coli = assay: Antimicrobial activity against Escherichia coli at 100 ug/disc measured every 24 hrs for 4 days by disc diffusion method; type: functional, organism-based
Botrytis cinerea = assay: Antimicrobial activity against Botrytis cinerea at 100 ug/disc measured every 24 hrs for 4 days by disc diffusion method; type: functional, organism-based
Lactuca sativa = assay: Phytotoxicity against lettuce seedling at 50 ug/mL by seedling elongation assay; type: functional, organism-based

Measured: Activity

CC[C@H](C)C[C@H](C)[C@H]1OC(=O)[C@H](Cc2ccccc2)NC(=O)/C(C)=C/[C@H](C)[C@@H](O)/C(C)=C/[C@H](C)[C@H](O)/C(C)=C\[C@@H]1C
inactive: MCF7 | Caco-2

CC[C@H](C)C[C@H](C)[C@H]1OC(=O)[C@H](Cc2ccccc2)NC(=O)/C(C)=C/[C@H](C)[C@@H](O)/C(C)=C/[C@H](C)[C@H](OC(C)=O)/C(C)=C/[C@@H]1C
inactive: Drosophila melanogaster | Saccharomyces cerevisiae | Beauveria bassiana | Aedes aegypti | Colletotrichum acutatum | Bacillus cereus | Escherichia coli | Botrytis cinerea | Lactuca sativa
